Tests used:
[1] = tested on: dog; settings: Subchronic oral toxicity in nonrodent, beagle, Capsule, dose end: 13 week, group: systemic
[2] = tested on: dog; settings: Chronic toxicity; beagle; Oral; Capsule; dose end: 52 week; group: systemic; systemic / pathology microscopic / kidney / dilatation + systemic / pathology microscopic / kidney / fibrosis + systemic / urinalysis / …
[3] = tested on: rabbit; settings: Prenatal developmental toxicity study; new zealand white; Oral; Gavage/Intubation; dose end: 19 GD; group: maternal; reproductive / reproductive performance / aborted / aborted + systemic / in life observation / body weight / body weight gain + systemic / …
[4] = tested on: mouse; settings: Carcinogenicity; b6c3f1; Oral; Feed; dose end: 104 week; group: systemic; systemic / in life observation / body weight / body weight gain + systemic / in life observation / food consumption / food consumption + …
[5] = tested on: rat; settings: Combined chronic toxicity/carcinogenicity, fischer, Oral, Feed, dose end: 104 week, group: systemic
[6] = tested on: rat; settings: Subchronic oral toxicity in rodents, fischer, Feed, dose end: 90 day, group: systemic, systemic / pathology microscopic / stomach / hyperplasia
[7] = tested on: rat; settings: Multigenerational reproductive toxicity study, other, Oral, Feed, dose end: 2 generation
[8] = tested on: rat; settings: Combined chronic toxicity/carcinogenicity, sprague dawley, Oral, Feed, dose end: 104 week
[9] = tested on: mouse; settings: Carcinogenicity, cd1, Oral, Feed, dose end: 105 week, group: systemic
[10] = tested on: rat; settings: Multigenerational reproductive toxicity study, other, Oral, Feed, dose end: 2 generation; remark: listed apart in the source
[11] = tested on: dog; settings: Subchronic oral toxicity in nonrodent, beagle, Feed, dose end: 64 day, group: systemic, systemic / clinical chemistry / cytochrome p450, nos / cytochrome p450, nos + systemic / clinical chemistry / o-demethylase / o-demethylase…
[12] = tested on: rat; settings: Combined chronic toxicity/carcinogenicity, fischer, Oral, Feed, dose end: 24 month, group: systemic
[13] = tested on: mouse; settings: Carcinogenicity, other, Oral, Feed, dose end: 24 month, group: systemic
[14] = tested on: rabbit; settings: Prenatal developmental toxicity study, himalayan, Oral, Gavage/Intubation, dose end: 28 GD
[15] = tested on: rat; settings: Subchronic oral toxicity in rodents, wistar, Feed, dose end: 90 day, group: systemic, systemic / pathology microscopic / stomach / hyperplasia + systemic / pathology microscopic / stomach / infiltration cellular + systemic / …
[16] = tested on: rat; settings: Multigenerational reproductive toxicity study, wistar, Oral, Feed, dose end: 2 generation
[17] = tested on: mouse; settings: Subchronic oral toxicity in rodents, b6c3f1, Feed, dose end: 90 day, group: systemic, systemic / in life observation / body weight / body weight + systemic / in life observation / body weight / body weight gain + systemic / in…
[18] = systemic / clinical chemistry / potassium / potassium + systemic / in life observation / clinical signs / abnormal feces + systemic / …
[19] = group: offspring, systemic / in life observation / body weight / offspring (pup) weight
[20] = group: parental, systemic / pathology gross / stomach / thickened + systemic / pathology microscopic / stomach / acanthosis + systemic / pathology …
[21] = group: cholinesterase, cholinesterase / cholinesterase / cholinesterase / erythrocyte cholinesterase (che) + cholinesterase / cholinesterase / cholinesterase / …
[22] = group: cholinesterase, cholinesterase / cholinesterase / cholinesterase / plasma cholinesterase (che)
[23] = group: systemic, systemic / clinical chemistry / urea nitrogen / urea nitrogen
[24] = group: systemic, systemic / clinical chemistry / urea nitrogen / urea nitrogen + systemic / organ weight / brain / relative to body weight + systemic / organ…
[25] = systemic / in life observation / body weight / body weight gain
[26] = group: cholinesterase, cholinesterase / cholinesterase / cholinesterase / cholinesterase (che)
[27] = group: offspring, systemic / in life observation / body weight / offspring (pup) weight + developmental / offspring survival late / lactation index / …
[28] = group: parental, systemic / in life observation / body weight / body weight gain
[29] = group: reproductive, reproductive / offspring survival early / litter size / litter size
[30] = systemic / organ weight / kidney / relative to body weight
[31] = systemic / hematology / leukocyte (wbc) count differential / leukocyte (wbc) + systemic / hematology / mean corpuscular hemoglobin (mch) / …
[32] = systemic / hematology / mean corpuscular hemoglobin concentration (mchc) / mean corpuscular hemoglobin concentration (mchc)
[33] = group: developmental, developmental / developmental malformation / bone / absent + developmental / developmental malformation / bone / enlarged fontanel + …
[34] = group: maternal, reproductive / reproductive performance / aborted / aborted + systemic / in life observation / body weight / body weight + systemic / in …
[35] = group: parental, systemic / pathology microscopic / stomach / vacuolization
[36] = group: reproductive, reproductive / offspring survival early / birth index / live birth index

Q: What does the source list for `CCC([O-])=C1C(=O)CC(C(=O)[O-])CC1=O.[Ca+2]` (stereo unspecified) [Prohexadione-calcium]?
A: NEL [1, 18]: 80 mg/kg/day; NOAEL [1, 18]: 80 mg/kg/day; LOAEL ([1]; systemic / clinical chemistry / potassium / potassium + systemic / pathology microscopic / kidney / dilatation): 400 mg/kg/day; LEL ([1]; systemic / clinical chemistry / potassium / potassium + systemic / pathology microscopic / kidney / dilatation + systemic / in life …): 400 mg/kg/day; LEL [2]: 200 mg/kg/day; LOAEL [2]: 200 mg/kg/day; NEL [2]: 20 mg/kg/day; NOAEL [2]: 20 mg/kg/day; LEL [3]: 200 mg/kg/day; LOAEL [3]: 200 mg/kg/day; NEL [3]: 40 mg/kg/day; NOAEL [3]: 40 mg/kg/day; LEL [4]: 2850 mg/kg/day; LOAEL [4]: 2850 mg/kg/day; NEL [4]: 279 mg/kg/day; NOAEL [4]: 279 mg/kg/day; LOAEL ([5]; systemic / hematology / leukocyte (wbc) count differential / leukocyte (wbc)): 469 mg/kg/day; NOAEL ([5]; systemic / hematology / leukocyte (wbc) count differential / leukocyte (wbc) + systemic / in life observation / body weight / body weight + …): 93.9 mg/kg/day; LEL ([5]; systemic / pathology microscopic / thyroid gland / dilatation): 114 mg/kg/day; NEL ([5]; systemic / pathology microscopic / thyroid gland / dilatation + systemic / in life observation / body weight / body weight + systemic / in …): 22.3 mg/kg/day; LEL [6]: 734 mg/kg/day; LOAEL [6]: 734 mg/kg/day; NEL [6]: 73.1 mg/kg/day; NOAEL [6]: 73.1 mg/kg/day; LEL [7, 19]: 385 mg/kg/day; LOAEL [7, 19]: 3850 mg/kg/day; NEL [7, 19]: 35.5 mg/kg/day; NOAEL [7, 19]: 385 mg/kg/day; LOAEL ([7]; group: parental, systemic / in life observation / mortality / mortality): 385 mg/kg/day; NOAEL ([7]; group: parental, systemic / in life observation / mortality / mortality + systemic / in life observation / body weight / body weight + systemic / pathology …): 35.5 mg/kg/day; LEL [7, 20]: 35.5 mg/kg/day; NEL [7, 20]: < 35.5 mg/kg/day

Q: For `COP(=O)(OC)SCn1c(=O)oc2cc(Cl)cnc21` [Azamethiphos], which LOAEL [8, 21] is on record?
A: 8.1 mg/kg/day

Q: What about the NOAEL [8, 21] of the same compound?
A: 0.8 mg/kg/day

Q: What about the LEL [8, 22] of the same compound?
A: 1.1 mg/kg/day

Q: What about the NEL [8, 22] of the same compound?
A: < 1.1 mg/kg/day

Q: And the LEL [8, 23]?
A: 0.8 mg/kg/day

Q: And the NEL [8, 23]?
A: < 0.8 mg/kg/day

Q: And the LOAEL [8, 24]?
A: > 62.6 mg/kg/day

Q: What about the NOAEL [8, 24] of the same compound?
A: ≥ 62.6 mg/kg/day

Q: What about the LEL [9, 25] of the same compound?
A: 6.2 mg/kg/day

Q: And the NEL [9, 25]?
A: < 6.2 mg/kg/day

Q: What about the LOAEL ([9]; systemic / pathology microscopic / intestine small / hyperplasia) of the same compound?
A: 60.2 mg/kg/day

Q: And the NOAEL ([9]; systemic / pathology microscopic / intestine small / hyperplasia + systemic / hematology / hematocrit (hct) / hematocrit (hct) + systemic / …)?
A: 6.2 mg/kg/day

Q: What about the LEL [10, 26] of the same compound?
A: 10 mg/kg/day

Q: And the LOAEL [10, 26]?
A: 10 mg/kg/day

Q: What about the NEL [10, 26] of the same compound?
A: 2 mg/kg/day

Q: What about the NOAEL [10, 26] of the same compound?
A: 2 mg/kg/day

Q: And the LOAEL [10, 19]?
A: 50 mg/kg/day

Q: And the LEL [10, 27]?
A: 50 mg/kg/day

Q: What about the NEL [10, 27] of the same compound?
A: 10 mg/kg/day

Q: And the NOAEL [10, 27]?
A: 10 mg/kg/day

Q: And the LEL [10, 28]?
A: 10 mg/kg/day

Q: What about the LOAEL [10, 28] of the same compound?
A: 10 mg/kg/day

Q: What about the NEL [10, 28] of the same compound?
A: 2 mg/kg/day

Q: And the NOAEL [10, 28]?
A: 2 mg/kg/day

Q: What about the LEL [10, 29] of the same compound?
A: 50 mg/kg/day

Q: What about the LOAEL [10, 29] of the same compound?
A: 50 mg/kg/day

Q: What about the NEL [10, 29] of the same compound?
A: 10 mg/kg/day

Q: What about the NOAEL [10, 29] of the same compound?
A: 10 mg/kg/day

Q: What does the source list for `CCCOc1nn(C(=O)[N-]S(=O)(=O)c2ccccc2C(=O)OC)c(=O)n1C.[Na+]` [Propoxycarbazone-sodium]?
A: LEL [11]: 1180 mg/kg/day; LOAEL [11]: > 1180 mg/kg/day; NEL [11]: 286 mg/kg/day; NOAEL [11]: ≥ 1180 mg/kg/day; LOAEL ([12]; systemic / in life observation / body weight / body weight gain + systemic / urinalysis / ph / ph): 459 mg/kg/day; NOAEL ([12]; systemic / in life observation / body weight / body weight gain + systemic / urinalysis / ph / ph + systemic / pathology gross / full gross …): 43 mg/kg/day; LEL [12, 30]: 43 mg/kg/day; NEL [12, 30]: < 43 mg/kg/day; LOAEL [13, 31]: > 1880 mg/kg/day; NOAEL [13, 31]: ≥ 1880 mg/kg/day; LEL [13, 32]: 74.6 mg/kg/day; NEL [13, 32]: < 74.6 mg/kg/day; LEL [14, 33]: 1000 mg/kg/day; LOAEL [14, 33]: > 1000 mg/kg/day; NEL [14, 33]: 500 mg/kg/day; NOAEL [14, 33]: ≥ 1000 mg/kg/day; LEL [14, 34]: 500 mg/kg/day; LOAEL [14, 34]: 500 mg/kg/day; NEL [14, 34]: 100 mg/kg/day; NOAEL [14, 34]: 100 mg/kg/day; LEL [15]: 1510 mg/kg/day; LOAEL [15]: 1510 mg/kg/day; NEL [15]: 286 mg/kg/day; NOAEL [15]: 286 mg/kg/day; LEL [16, 35]: 323 mg/kg/day; LOAEL [16, 35]: 323 mg/kg/day; NEL [16, 35]: 79.6 mg/kg/day; NOAEL [16, 35]: 79.6 mg/kg/day; LEL [16, 36]: 1310 mg/kg/day; LOAEL [16, 36]: 1310 mg/kg/day; NEL [16, 36]: 323 mg/kg/day; NOAEL [16, 36]: 323 mg/kg/day; LEL [17]: 860 mg/kg/day; LOAEL [17]: 860 mg/kg/day; NEL [17]: 205 mg/kg/day; NOAEL [17]: 205 mg/kg/day
